Tests used:
Assay in all cases: relative viability (nuclei count vs DMSO), 5 days (fraction); higher = more cells survive
CUDC-101 + Linsitinib = compound: C#Cc1cccc(Nc2ncnc3cc(OC)c(OCCCCCCC(=O)NO)cc23)c1 [CUDC-101] + C[C@]1(O)C[C@@H](c2nc(-c3ccc4ccc(-c5ccccc5)nc4c3)c3c(N)nccn32)C1 [Linsitinib] (partner 1 µM)
In short: (§1)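 Five library-drug doses in √10 steps were combined with a fixed anchor-drug dose, or a single drug was given alone, by pin tool to lung cancer cell lines in 1536-well plates the day after seeding. Nuclei were stained and counted after 5 days. Relative viability is the nuclei count in treated wells over that in vehicle wells, taken as the median of duplicate plates.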

CUDC-101 + Pemetrexed = compound: C#Cc1cccc(Nc2ncnc3cc(OC)c(OCCCCCCC(=O)NO)cc23)c1 [CUDC-101] + Nc1nc2[nH]cc(CCc3ccc(C(=O)N[C@@H](CCC(=O)O)C(=O)O)cc3)c2c(=O)[nH]1 [Pemetrexed] (partner 0.2 µM)
In short: as §1

[1] = compound: C1=CC=C2C(=C1)N=C(S2)C(C#N)C3=NC(=NC=C3)NCCC4=CN=CC=C4 + C[C@@H](Oc1cc(-c2cnn(C3CCNCC3)c2)cnc1N)c1c(Cl)ccc(F)c1Cl [Crizotinib] (partner 1 µM)
In short: as §1

[2] = compound: C1=CC=C2C(=C1)N=C(S2)C(C#N)C3=NC(=NC=C3)NCCC4=CN=CC=C4 + Cc1cc(Nc2cc(N3CCN(C)CC3)nc(Sc3ccc(NC(=O)C4CC4)cc3)n2)n[nH]1 [Tozasertib] (partner 0.1 µM)
In short: as §1

NCI-H1437
relative viability (CUDC-101 + Linsitinib; first compound 0.01 µM): 1.16 | relative viability (CUDC-101 + Linsitinib; first compound 0.03162 µM): 0.842 | relative viability (CUDC-101 + Linsitinib; first compound 0.1 µM): 0.957 | relative viability (CUDC-101 + Linsitinib; first compound 0.3162 µM): 0.983 | relative viability (CUDC-101 + Linsitinib; first compound 1 µM): 0.4 | relative viability (CUDC-101 + Pemetrexed; first compound 0.01 µM): 0.336 | relative viability (CUDC-101 + Pemetrexed; first compound 0.03162 µM): 0.306 | relative viability (CUDC-101 + Pemetrexed; first compound 0.1 µM): 0.337 | relative viability (CUDC-101 + Pemetrexed; first compound 0.3162 µM): 0.31 | relative viability (CUDC-101 + Pemetrexed; first compound 1 µM): 0.316 | relative viability ([1]; first compound 0.005 µM): 0.66 | relative viability ([1]; first compound 0.01581 µM): 1.09 | relative viability ([1]; first compound 0.05 µM): 0.932 | relative viability ([1]; first compound 0.1581 µM): 1.09 | relative viability ([1]; first compound 0.5 µM): 0.679 | relative viability ([2]; first compound 0.005 µM): 0.355 | relative viability ([2]; first compound 0.01581 µM): 0.389 | relative viability ([2]; first compound 0.05 µM): 0.414 | relative viability ([2]; first compound 0.1581 µM): 0.401 | relative viability ([2]; first compound 0.5 µM): 0.325

PC-3 [JPC-3]
relative viability (CUDC-101 + Linsitinib; first compound 0.01 µM): 0.987 | relative viability (CUDC-101 + Linsitinib; first compound 0.03162 µM): 0.91 | relative viability (CUDC-101 + Linsitinib; first compound 0.1 µM): 0.789 | relative viability (CUDC-101 + Linsitinib; first compound 0.3162 µM): 0.667 | relative viability (CUDC-101 + Linsitinib; first compound 1 µM): 0.383 | relative viability (CUDC-101 + Pemetrexed; first compound 0.01 µM): 1.12 | relative viability (CUDC-101 + Pemetrexed; first compound 0.03162 µM): 1.06 | relative viability (CUDC-101 + Pemetrexed; first compound 0.1 µM): 0.842 | relative viability (CUDC-101 + Pemetrexed; first compound 0.3162 µM): 0.439 | relative viability (CUDC-101 + Pemetrexed; first compound 1 µM): 0.393 | relative viability ([1]; first compound 0.005 µM): 0.712 | relative viability ([1]; first compound 0.01581 µM): 1.07 | relative viability ([1]; first compound 0.05 µM): 1.01 | relative viability ([1]; first compound 0.1581 µM): 0.948 | relative viability ([1]; first compound 0.5 µM): 0.846 | relative viability ([2]; first compound 0.005 µM): 0.661 | relative viability ([2]; first compound 0.01581 µM): 0.927 | relative viability ([2]; first compound 0.05 µM): 0.866 | relative viability ([2]; first compound 0.1581 µM): 0.791 | relative viability ([2]; first compound 0.5 µM): 0.706

NCI-H1355
relative viability (CUDC-101 + Linsitinib; first compound 0.01 µM): 0.887 | relative viability (CUDC-101 + Linsitinib; first compound 0.03162 µM): 0.761 | relative viability (CUDC-101 + Linsitinib; first compound 0.1 µM): 0.822 | relative viability (CUDC-101 + Linsitinib; first compound 0.3162 µM): 0.739 | relative viability (CUDC-101 + Linsitinib; first compound 1 µM): 0.645 | relative viability (CUDC-101 + Pemetrexed; first compound 0.01 µM): 0.995 | relative viability (CUDC-101 + Pemetrexed; first compound 0.03162 µM): 1.07 | relative viability (CUDC-101 + Pemetrexed; first compound 0.1 µM): 0.974 | relative viability (CUDC-101 + Pemetrexed; first compound 0.3162 µM): 1.13 | relative viability (CUDC-101 + Pemetrexed; first compound 1 µM): 1.02 | relative viability ([1]; first compound 0.005 µM): 1.11 | relative viability ([1]; first compound 0.01581 µM): 1.16 | relative viability ([1]; first compound 0.05 µM): 1.04 | relative viability ([1]; first compound 0.1581 µM): 1.03 | relative viability ([1]; first compound 0.5 µM): 0.949 | relative viability ([2]; first compound 0.005 µM): 0.445 | relative viability ([2]; first compound 0.01581 µM): 0.516 | relative viability ([2]; first compound 0.05 µM): 0.463 | relative viability ([2]; first compound 0.1581 µM): 0.594 | relative viability ([2]; first compound 0.5 µM): 0.385

HCC-827
relative viability (CUDC-101 + Linsitinib; first compound 0.01 µM): 0.965 | relative viability (CUDC-101 + Linsitinib; first compound 0.03162 µM): 0.537 | relative viability (CUDC-101 + Linsitinib; first compound 0.1 µM): 0.257 | relative viability (CUDC-101 + Linsitinib; first compound 0.3162 µM): 0.203 | relative viability (CUDC-101 + Linsitinib; first compound 1 µM): 0.205 | relative viability (CUDC-101 + Pemetrexed; first compound 0.01 µM): 0.237 | relative viability (CUDC-101 + Pemetrexed; first compound 0.03162 µM): 0.241 | relative viability (CUDC-101 + Pemetrexed; first compound 0.1 µM): 0.163 | relative viability (CUDC-101 + Pemetrexed; first compound 0.3162 µM): 0.137 | relative viability (CUDC-101 + Pemetrexed; first compound 1 µM): 0.138 | relative viability ([1]; first compound 0.005 µM): 0.874 | relative viability ([1]; first compound 0.01581 µM): 0.945 | relative viability ([1]; first compound 0.05 µM): 0.907 | relative viability ([1]; first compound 0.1581 µM): 0.958 | relative viability ([1]; first compound 0.5 µM): 0.905 | relative viability ([2]; first compound 0.005 µM): 0.366 | relative viability ([2]; first compound 0.01581 µM): 0.425 | relative viability ([2]; first compound 0.05 µM): 0.424 | relative viability ([2]; first compound 0.1581 µM): 0.438 | relative viability ([2]; first compound 0.5 µM): 0.394

NCI-H1944
relative viability (CUDC-101 + Linsitinib; first compound 0.01 µM): 1.27 | relative viability (CUDC-101 + Linsitinib; first compound 0.03162 µM): 0.898 | relative viability (CUDC-101 + Linsitinib; first compound 0.1 µM): 1.14 | relative viability (CUDC-101 + Linsitinib; first compound 0.3162 µM): 1.05 | relative viability (CUDC-101 + Linsitinib; first compound 1 µM): 0.849 | relative viability (CUDC-101 + Pemetrexed; first compound 0.01 µM): 0.62 | relative viability (CUDC-101 + Pemetrexed; first compound 0.03162 µM): 0.615 | relative viability (CUDC-101 + Pemetrexed; first compound 0.1 µM): 0.597 | relative viability (CUDC-101 + Pemetrexed; first compound 0.3162 µM): 0.582 | relative viability (CUDC-101 + Pemetrexed; first compound 1 µM): 0.43 | relative viability ([1]; first compound 0.005 µM): 1.15 | relative viability ([1]; first compound 0.01581 µM): 1.18 | relative viability ([1]; first compound 0.05 µM): 1.02 | relative viability ([1]; first compound 0.1581 µM): 1.12 | relative viability ([1]; first compound 0.5 µM): 1.1 | relative viability ([2]; first compound 0.005 µM): 0.275 | relative viability ([2]; first compound 0.01581 µM): 0.255 | relative viability ([2]; first compound 0.05 µM): 0.25 | relative viability ([2]; first compound 0.1581 µM): 0.269 | relative viability ([2]; first compound 0.5 µM): 0.24

NCI-H2405
relative viability (CUDC-101 + Linsitinib; first compound 0.01 µM): 1.03 | relative viability (CUDC-101 + Linsitinib; first compound 0.03162 µM): 0.702 | relative viability (CUDC-101 + Linsitinib; first compound 0.1 µM): 0.981 | relative viability (CUDC-101 + Linsitinib; first compound 0.3162 µM): 1.14 | relative viability (CUDC-101 + Linsitinib; first compound 1 µM): 0.851 | relative viability (CUDC-101 + Pemetrexed; first compound 0.01 µM): 1.07 | relative viability (CUDC-101 + Pemetrexed; first compound 0.03162 µM): 1 | relative viability (CUDC-101 + Pemetrexed; first compound 0.1 µM): 1.05 | relative viability (CUDC-101 + Pemetrexed; first compound 0.3162 µM): 1.17 | relative viability (CUDC-101 + Pemetrexed; first compound 1 µM): 0.967 | relative viability ([1]; first compound 0.005 µM): 0.819 | relative viability ([1]; first compound 0.01581 µM): 0.915 | relative viability ([1]; first compound 0.05 µM): 0.872 | relative viability ([1]; first compound 0.5 µM): 0.809 | relative viability ([2]; first compound 0.005 µM): 0.714 | relative viability ([2]; first compound 0.01581 µM): 0.72 | relative viability ([2]; first compound 0.05 µM): 0.672 | relative viability ([2]; first compound 0.1581 µM): 0.701 | relative viability ([2]; first compound 0.5 µM): 0.616

NCI-H650
relative viability (CUDC-101 + Linsitinib; first compound 0.01 µM): 0.992 | relative viability (CUDC-101 + Linsitinib; first compound 0.03162 µM): 0.876 | relative viability (CUDC-101 + Linsitinib; first compound 0.1 µM): 1.04 | relative viability (CUDC-101 + Linsitinib; first compound 0.3162 µM): 0.662 | relative viability (CUDC-101 + Linsitinib; first compound 1 µM): 0.688 | relative viability (CUDC-101 + Pemetrexed; first compound 0.01 µM): 1.02 | relative viability (CUDC-101 + Pemetrexed; first compound 0.03162 µM): 0.916 | relative viability (CUDC-101 + Pemetrexed; first compound 0.1 µM): 1 | relative viability (CUDC-101 + Pemetrexed; first compound 0.3162 µM): 0.904 | relative viability (CUDC-101 + Pemetrexed; first compound 1 µM): 0.803 | relative viability ([1]; first compound 0.005 µM): 0.484 | relative viability ([1]; first compound 0.01581 µM): 0.67 | relative viability ([1]; first compound 0.05 µM): 0.568 | relative viability ([1]; first compound 0.1581 µM): 0.672 | relative viability ([1]; first compound 0.5 µM): 0.704 | relative viability ([2]; first compound 0.005 µM): 0.633 | relative viability ([2]; first compound 0.05 µM): 0.708 | relative viability ([2]; first compound 0.1581 µM): 0.742 | relative viability ([2]; first compound 0.5 µM): 0.644

— the supplement of paper PMC10307832
